Data from patent US20170209445A1, “KINASE INHIBITORS” (Respivert Limited, priority 2014, published 2017).

What was measured:
Jurkat cells = experiment: Cell cytotoxicity assay (Jurkat cell viability); format: cell-based, human; conditions: 24 hours
Procedure: 1×10^5 Jurkat cells (immortalised human T lymphocytes) are added to the appropriate number of wells of a 96 well plate in 100 μL of media (RPMI supplemented with 10% foetal bovine serum). 1 μL of DMSO control (final concentration 1.0% v/v) or test compound (final concentration 20, 5 or 1 μg/mL) is added to the wells and incubated at 37° C., 5% CO2. After 24 hours, the plate is centrifuged at 1200 rpm for 3 minutes and the supernatant discarded. Cells are then resuspended in 150 μL (final concentration 7.5 μg/mL) of propidium iodide (PI) in PBS and incubated at 37° C., 5% CO2 for 15 minutes. After 15 minutes, cells are analysed by flow cytometry (BD accuri) using the FL3 window. The % viability is calculated as the % of cells that are PI negative in the test wells normalised to the DMSO control.

PBMCs = experiment: LPS-induced IL-8 release in PBMC cells; format: cell-based; conditions: Homo sapiens, LPS-stimulated PBMCs, read-out: IC50 Values for Inhibition of Cytokine Release PBMCs IL-8
Procedure: Peripheral blood mononuclear cells (PBMCs) from healthy subjects are separated from whole blood using a density gradient (Lymphoprep, Axis-Shield Healthcare). The PBMCs are seeded in 96 well plates and treated with compounds at the desired concentration for 2 hours before addition of 1 ng/mL LPS (Escherichia Coli 0111:B4 from Sigma Aldrich) for 24 hours under normal tissue culture conditions (37° C., 5% CO2). The supernatant is harvested for determination of IL-8 and TNFα concentrations by sandwich ELISA (Duo-set, R&D systems) and read on the fluorescence microplate reader (Varioskan® Flash, ThermoFisher Scientific).

Row | Compound | % Viability at 1 μg/mL (Jurkat cells) [%] | % Viability at 5 μg/mL (Jurkat cells) [%] | % Viability at 20 μg/mL (Jurkat cells) [%] | IC50 (PBMCs) [nM]
1 | COCC(=O)Nc1cc(Oc2ccc(NC(=O)Nc3cc(C(C)(C)C)nn3-c3ccc(C)cc3)c3ccccc23)ccn1 [Reference Compound A, N-(4-(4-(3-(3-tert-butyl-1-p-tolyl-1H-pyrazol-5-yl)ureido)naphthalen-1-yloxy)pyridin-2-yl)-2-methoxyacetamide, reference compound] | 23.5 | 18.9 | 17.3 | 
2 | COc1c(NC(=O)c2ccc(C)c(-c3ccc4nc(Nc5cccc(CP(C)(C)=O)c5)ncc4c3)c2)cc(C(C)(C)C)cc1NS(C)(=O)=O [14(i), N-(5-(tert-Butyl)-2-methoxy-3-(methylsulfonamido)phenyl)-3-(2-((3-((dimethylphosphoryl)methyl)phenyl)amino)quinazolin-6-yl)-4-methylbenzamide] | 69.8 | 8.4 | 2.1 | 6.9
3 | COc1cc(Nc2ncc3cc(-c4cc(C(=O)Nc5cc(C(C)(C)C)cc(NS(C)(=O)=O)c5OC)ccc4C)ccc3n2)ccc1C(=O)O [Example 8, 4-((6-(5-((5-(tert-Butyl)-2-methoxy-3-(methylsulfonamido)phenyl)carbamoyl)-2-methylphenyl)quinazolin-2-yl)amino)-2-methoxybenzoic acid] | 91.1 | 65.8 | 30.6 | 4
4 | COc1c(NC(=O)c2ccc(C)c(-c3ccc4nc(Nc5ccc(N=S(C)(C)=O)cc5)ncc4c3)c2)cc(C(C)(C)C)cc1NS(C)(=O)=O [Example 7, N-(5-(tert-Butyl)-2-methoxy-3-(methylsulfonamido)phenyl)-3-(2-((4-((dimethyl(oxo)-I6-sulfanylidene)amino)phenyl)amino)quinazolin-6-yl)-4-methylbenzamide] | 79.0 | 54.7 | 49.7 | 3.8
5 | COCCOCCNC(=O)c1ccc(Nc2ncc3cc(-c4cc(C(=O)Nc5cc(C(C)(C)C)cc(NS(C)(=O)=O)c5OC)ccc4C)ccc3n2)cc1OC [14(w), 4-((6-(5-((5-(tert-Butyl)-2-methoxy-3-(methylsulfonamido)phenyl)carbamoyl)-2-methylphenyl)quinazolin-2-yl)amino)-2-methoxy-N-(2-(2-methoxyethoxy)ethyl)benzamide] |  |  |  | 8.4
6 | C#Cc1cc(Nc2ncc3cc(-c4cc(C(=O)Nc5cc(C(C)(C)C)cc(NS(C)(=O)=O)c5OC)ccc4C)ccc3n2)cc(C(=O)NCCOCCOC)c1 [14(m), N-(5-(tert-Butyl)-2-methoxy-3-(methylsulfonamido)phenyl)-3-(2-((3-ethynyl-5-((2-(2-methoxyethoxy)ethyl)carbamoyl)phenyl)amino)quinazolin-6-yl)-4-methylbenzamide] |  |  |  | 10.4
7 | COc1cc(Nc2ncc3cc(-c4cc(C(=O)Nc5cc(C(C)(C)C)cc(NS(C)(=O)=O)c5OC)ccc4C)ccc3n2)ccc1C(=O)NCCN1CCN(CCO)CC1 [Example 13] |  |  |  | 6.7
8 | COc1cc(Nc2ncc3cc(-c4cc(C(=O)Nc5cc(C(C)(C)C)cc(NS(C)(=O)=O)c5OC)ccc4C)ccc3n2)ccc1C(=O)NCC1CCN(C)CC1 [14(ai), 4-((6-(5-((5-(tert-Butyl)-2-methoxy-3-(methylsulfonamido)phenyl)carbamoyl)-2-methylphenyl)quinazolin-2-yl)amino)-2-methoxy-N-((1-methylpiperidin-4-yl)methyl)benzamide] |  |  |  | 7.9
9 | COc1cc(Nc2ncc3cc(-c4cc(C(=O)Nc5cc(C(C)(C)C)cc(NS(C)(=O)=O)c5OC)ccc4C)ccc3n2)ccc1C(=O)NCCN1CCN(C)CC1 [14(z), 4-((6-(5-((5-(tert-Butyl)-2-methoxy-3-(methylsulfonamido)phenyl)carbamoyl)-2-methyl-phenyl)quinazolin-2-yl)amino)-2-methoxy-N-(2-(4-methylpiperazin-1-yl)ethyl)benzamide] |  |  |  | 6
10 | COc1c(NC(=O)c2ccc(C)c(-c3ccc4nc(Nc5cccc(C(=O)NCCN6CCOCC6)c5)ncc4c3)c2)cc(C(C)(C)C)cc1NS(C)(=O)=O [14(d), N-(5-(tert-Butyl)-2-methoxy-3-(methylsulfonamido)phenyl)-4-methyl-3-(2-((3-((2-morpholinoethyl)carbamoyl)phenyl)amino)quinazolin-6-yl)benzamide] |  |  |  | 8.3
11 | COc1cc(Nc2ncc3cc(-c4cc(C(=O)Nc5cc(C(C)(C)C)cc(NS(C)(=O)=O)c5OC)ccc4C)ccc3n2)ccc1C(=O)NCCN1CCCC1 [14(ak), 4-((6-(5-((5-(tert-Butyl)-2-methoxy-3-(methylsulfonamido)phenyl)carbamoyl)-2-methylphenyl)quinazolin-2-yl)amino)-2-methoxy-N-(2-(pyrrolidin-1-yl)ethyl)benzamide] |  |  |  | 14.8
12 | COc1cc(Nc2ncc3cc(-c4cc(C(=O)Nc5cc(C(C)(C)C)cc(NS(C)(=O)=O)c5OC)ccc4C)ccc3n2)ccc1C(=O)NCCCN1CCCOCC1 [14(ab), N-(3-(1,4-Oxazepan-4-yl)propyl)-4-((6-(5-((5-(tert-butyl)-2-methoxy-3-(methyl-sulfonamido)phenyl)carbamoyl)-2-methylphenyl)quinazolin-2-yl)amino)-2-methoxybenzamide] |  |  |  | 5.4
13 | COc1cc(Nc2ncc3cc(-c4cc(C(=O)Nc5cc(C(C)(C)C)cc(NS(C)(=O)=O)c5OC)ccc4C)ccc3n2)ccc1C(=O)NC1CCN(C)CC1 [14(ac), 4-((6-(5-((5-(tert-Butyl)-2-methoxy-3-(methylsulfonamido)phenyl)carbamoyl)-2-methylphenyl)quinazolin-2-yl)amino)-2-methoxy-N-(1-methylpiperidin-4-yl)benzamide] |  |  |  | 5.1
14 | COCCOCCOCCOc1cc(C#N)cc(Nc2ncc3cc(-c4cc(C(=O)Nc5cc(C(C)(C)C)cc(NS(C)(=O)=O)c5OC)ccc4C)ccc3n2)c1 [14(f), N-(5-(tert-Butyl)-2-methoxy-3-(methylsulfonamido)phenyl)-3-(2-((3-cyano-5-(2-(2-(2-methoxyethoxy)ethoxy)ethoxy)phenyl)amino)quinazolin-6-yl)-4-methylbenzamide] |  |  |  | 10.4
15 | COc1c(NC(=O)c2ccc(C)c(-c3ccc4nc(Nc5ccc(OS(C)(=O)=O)cc5)ncc4c3)c2)cc(C(C)(C)C)cc1NS(C)(=O)=O [14(j), 4-((6-(5-((5-(tert-Butyl)-2-methoxy-3-(methylsulfonamido)phenyl)carbamoyl)-2-methylphenyl)quinazolin-2-yl)amino)phenyl methanesulfonate] |  |  |  | 9.1
16 | C#Cc1cc(Nc2ncc3cc(-c4cc(C(=O)Nc5cc(C(C)(C)C)cc(NS(C)(=O)=O)c5OC)ccc4C)ccc3n2)cc(C(=O)NCCOC)c1 [14(n), N-(5-(tert-Butyl)-2-methoxy-3-(methylsulfonamido)phenyl)-3-(2-((3-ethynyl-5-((2-methoxyethyl)carbamoyl)phenyl)amino)quinazolin-6-yl)-4-methylbenzamide] |  |  |  | 11
17 | COc1cc(Nc2ncc3cc(-c4cc(C(=O)Nc5cc(C(C)(C)C)cc(NS(C)(=O)=O)c5OC)ccc4C)ccc3n2)ccc1C(=O)NCC(CO)(CO)CO [14(x), 4-((6-(5-((5-(tert-Butyl)-2-methoxy-3-(methylsulfonamido)phenyl)carbamoyl)-2-methylphenyl)quinazolin-2-yl)amino)-N-(3-hydroxy-2,2-bis(hydroxymethyl)propyl)-2-methoxybenzamide] |  |  |  | 7.7
18 | COc1cc(Nc2ncc3cc(-c4cc(C(=O)Nc5cc(C(C)(C)C)cc(NS(C)(=O)=O)c5OC)ccc4C)ccc3n2)ccc1C(=O)NCCN1CCOCC1 [14(am), 4-((6-(5-((5-(tert-Butyl)-2-methoxy-3-(methylsulfonamido)phenyl)carbamoyl)-2-methylphenyl)quinazolin-2-yl)amino)-2-methoxy-N-(2-morpholinoethyl)benzamide] |  |  |  | 19.5
19 | COc1cc(Nc2ncc3cc(-c4cc(C(=O)Nc5cc(C(C)(C)C)cc(NS(C)(=O)=O)c5OC)ccc4C)ccc3n2)ccc1C(=O)NCCc1cccnc1 [14(ag), 4-((6-(5-((5-(tert-Butyl)-2-methoxy-3-(methylsulfonamido)phenyl)carbamoyl)-2-methylphenyl)quinazolin-2-yl)amino)-2-methoxy-N-(2-(pyridin-3-yl)ethyl)benzamide] |  |  |  | 11.6
20 | C#Cc1cc(Nc2ncc3cc(-c4cc(C(=O)Nc5cc(C(C)(C)C)cc(NS(C)(=O)=O)c5OC)ccc4C)ccc3n2)cc(OCCOCCOCCOC)c1 [14(k), N-(5-(tert-Butyl)-2-methoxy-3-(methylsulfonamido)phenyl)-3-(2-((3-ethynyl-5-(2-(2-(2-methoxyethoxy)ethoxy)ethoxy)phenyl)amino)quinazolin-6-yl)-4-methylbenzamide] |  |  |  | 16.7
21 | COc1cc(Nc2ncc3cc(-c4cc(C(=O)Nc5cc(C(C)(C)C)cc(NS(C)(=O)=O)c5OC)ccc4C)ccc3n2)ccc1C(=O)NCCC1(O)CCN(C)CC1 [14(aj), 4-((6-(5-((5-(tert-Butyl)-2-methoxy-3-(methylsulfonamido)phenyl)carbamoyl)-2-methylphenyl)quinazolin-2-yl)amino)-N-(2-(4-hydroxy-1-methylpiperidin-4-yl)ethyl)-2-methoxybenzamide] |  |  |  | 9.3
